Reference: patent US10078090B2, “SAB as a biomarker for degenerative diseases and therapeutic sensitivity in cancers” (The Florida International University Board of Trustees, priority 2014, dated 2018)
“Also recorded” adds a separate entry of the source. Read-outs that look alike come from different tables or passages of the source.

Tests used:
Sab expression [1] = assay: In-cell western for SAB expression in SH-SY5Y cells treated with 6-OHDA; format: cell-based, human; conditions: increasing sub-chronic doses of 6-OHDA (0-100.00 nM, 24 hours)
Method: Cells or tissue samples are placed in a fluorescent compatible plate (for example, a 96-well plate) and the sample can be fixed to the plate. The sample is then permeabilized using detergent to disrupt the plasma membrane. Primary antibodies to detect SAB (Abnova, Inc.) are then incubated with the samples. Following a brief wash, the cells are incubated with a fluorescently labeled secondary antibody used to recognize the primary antibody. The samples are washed again. The plate is then scanned on a Li-Cor Bioscience Odyssey CLx near-infrared scanner to measure the fluorescent signal from the sample. A high fluorescent signaling indicates a higher level of SAB protein, while a low fluorescence signal indicates a lower level of SAB protein.
An in-cell western allows detection of protein levels in cells cultured in a 96-well black walled plate. For this technique, the cells are fixed with paraformaldehyde following seeding and growth to 80% confluency. […] Using the LiCor Odyssey CLx near infrared imager, the relative amounts of protein in each well are quantified. […]
An example of in-cell western technology for the detection of SAB is shown in (FIG. 3). […] In a model of cytotoxicity, SH-SY5Y cells treated with increasing sub-chronic doses of the neurotoxin, 6-hydroxydopamine (6-OHDA) were seeded in a 96-well plate and monitored for SAB expression.

SAB [2] = assay: SAB levels in rats injected with 6-OHDA (ventral midbrain western blot, blood cells); format: in vivo, rat
Excerpt: Parkinson's disease-like state was induced in animals by localizing treatment to the ventral midbrains of rats using 6-hydroxydopamine. Blood was obtained from 6-hydroxydopamine treated rats and the control rats. Levels of SAB protein or RNA encoding SAB proteins in platelets and other blood cells were higher in 6-hydroxydopamine treated rats compared to control rats.
Further, disruption of SAB-mediated signaling using a small peptide to block kinase binding to SAB prevented 6-OHDA-induced motor deficiencies in rats (FIG. 8).

[3] = patients; cited from earlier work
SAB [4] = assay: SAB levels in response to chronic cytotoxic processes; conditions: treatment with CCCP
HeLa cells [5] = assay: Calculation of paclitaxel and cisplatin IC50s by TO-PRO-3 staining; format: cell-based, human
Method: LY294002 was solubilized in dimethylformamide (DMF). HeLa cells were exposed to the indicated doses of LY294002 over 24 h for acute studies. […] For sub-chronic exposure, cells were dosed with 2 μM LY294002 for seven days. The media was exchanged every 48 h to sustain the drug concentrations.
Briefly, 10,000 cells were plated in a black-walled optically clear bottom 96-well plate. […] The cells were fixed in 4% paraformaldehyde for 25 min at room temperature, and stained with TO-PRO-3 (1 μM) in PBST (150 mM NaCl, 8 mM Na2HPO4, 3 mM KCl, 2 mM KH2PO4, pH 7.4, 0.05% Tween 20). The cells were then washed five times in PBST while gently rocking for 5 min at room temperature. Samples were protected from light during incubations. Assays were visualized on the Li-Cor Odyssey CLx imager, and IC50s were calculated using Graphpad® Prism.
Transient transfections with pLOC plasmids for expression and pLKO.1 plasmids for silencing (Open Biosystems) were used to modulate Sab levels. HeLa cells were plated at a density of 2×10^5 cells per 35-mm dish the day before transfections. Plasmids were mixed with FugeneHD (Promega) at a ratio of 3:1 according to the manufacturer's protocol. Protein levels were monitored by western blot analysis.
(§1) Studies using LY294002 have employed high doses (often >10 μM). […] For acute treatments, cells were dosed with 0.1% DMF or increasing concentrations of LY294002 (2 μM, 10 μM, and 50 μM) for 24 h.

HeLa cells [6] = assay: LY294002 toxicity / viability of HeLa cells; format: cell-based, human
Method: LY294002 was solubilized in dimethylformamide (DMF). HeLa cells were exposed to the indicated doses of LY294002 over 24 h for acute studies. […] […] The media was exchanged every 48 h to sustain the drug concentrations.
as §1

Sab expression [7] = assay: Sab expression in LY294002-treated HeLa cells by quantitative western blot; format: cell-based, human
Method: LY294002 was solubilized in dimethylformamide (DMF). HeLa cells were exposed to the indicated doses of LY294002 over 24 h for acute studies. The 24-h IC10 for LY294002 in HeLa cells to be ˜2 μM. For sub-chronic exposure, cells were dosed with 2 μM LY294002 for seven days. The media was exchanged every 48 h to sustain the drug concentrations.
Following 72 h of transfection, cells were lysed and proteins were harvested. Protein concentration was determined using the by Pierce BCA Assay kit. Proteins were resolved by SDS-PAGE, and transferred onto PVDF membranes. Membranes were incubated with Li-Cor Biosciences Odyssey Blocking for at least 1 h at room temperature. The membranes were then incubated with primary antibodies specific for Sab, JNK, p44/42 MAPK (Erk1/2), p38, GAPDH, Actin, Calnexin, TOM20, or α-tubulin at 1:1000 dilutions in blocking buffer. Membranes were washed three times for 5 min in PBST. Membranes were incubated with secondary antibodies in blocking buffer at 1:20,000 for fluorescently conjugated secondary antibodies. Membranes were again washed three times for 5 min in PBST. […]
(§2) Western blot images were acquired using the LI-COR Odyssey CLx imager. Fluorescence signals were acquired for the bands of interest. […]
HeLa cell mitochondria were primed using a sub-chronic (2 μM dose) of LY294002 for seven days. The concentration of SAB was monitored using quantitative western blot analysis on protein lysates taken on days 0, 3, and 7 of LY294002 treatment.
To determine if LY294002 impacted the concentration of JNK signaling on mitochondria, the expression of Sab was measured in HeLa cells in both acute and sub-chronic administration of LY294002. […] As time increased, there was a noticeable increase (˜8-fold) in Sab expression in the LY294002 compared to DMF-treated and untreated cells (FIG. 17B and quantified in FIG. 18B). […] To determine if mitochondrial translocation of JNK occurred during the sub-chronic treatment, mitochondrial isolates were analyzed for the presence of JNK on days 3 and 4 (the days of maximal JNK activation). […]

JNK = JNK activation and mitochondrial JNK in LY294002-treated HeLa cells by western blot; format: cell-based, human
Method: Following 72 h of transfection, cells were lysed and proteins were harvested. Protein concentration was determined using the by Pierce BCA Assay kit. Proteins were resolved by SDS-PAGE, and transferred onto PVDF membranes. Membranes were incubated with Li-Cor Biosciences Odyssey Blocking for at least 1 h at room temperature. The membranes were then incubated with primary antibodies specific for Sab, JNK, p44/42 MAPK (Erk1/2), p38, GAPDH, Actin, Calnexin, TOM20, or α-tubulin at 1:1000 dilutions in blocking buffer. Membranes were washed three times for 5 min in PBST. Membranes were incubated with secondary antibodies in blocking buffer at 1:20,000 for fluorescently conjugated secondary antibodies. Membranes were again washed three times for 5 min in PBST. Western blots were developed using the Odyssey CLx imager (Li-Cor Biosciences).
Mitochondria were isolated from HeLa cells. […]
as §2
To determine if LY294002 impacted the concentration of JNK signaling on mitochondria, the expression of Sab was measured in HeLa cells in both acute and sub-chronic administration of LY294002. […] As time increased, there was a noticeable increase (˜8-fold) in Sab expression in the LY294002 compared to DMF-treated and untreated cells (FIG. 17B and quantified in FIG. 18B). […]

[8] = test system: SK-OV-3 ovarian cancer cells; assay: Paclitaxel sensitivity of SK-OV-3 cells over-expressing SH3BP5; format: cell-based, human; conditions: paclitaxel following 48 hours of transfection

NCCc1cc(O)c(O)cc1O [6-OHDA, 6-hydroxydopamine]
SAB expression (Sab expression [1]): elevates SAB expression; also recorded: increased in a dose-dependent manner | Levels of SAB protein or RNA encoding SAB proteins in platelets and other blood cells (SAB [2]; 6-hydroxydopamine treated rats compared to control rats): higher | SAB levels in ventral midbrain (SAB [2]; rats stereotactically injected with 6-OHDA versus saline, six days post-injection): SAB levels increase; also recorded: elevated

Sc1ncnc2nc[nH]c12 [6-mercaptopurine]
Doses that can induce hepatotoxicity [3]: greater than 2 mg/kg

N#CC(C#N)=NNc1cccc(Cl)c1 [CCCP, carbonylcyanide m-chlorophenylhydrazone]
SAB levels (SAB [4]): increased

N.N.[Cl][Pt][Cl] [Cisplatin]
IC50 (HeLa cells [5]; read-out: Cisplatin IC50, Sab shRNA#2 + Sab:shRNA^r (rescue)): 0.0073 µM | IC50 (HeLa cells [5]; read-out: Cisplatin IC50, gene silencing, Sab shRNA#1): 0.0121 µM | IC50 (HeLa cells [5]; read-out: Cisplatin IC50, gene silencing, Sab shRNA#2): 0.0188 µM | IC50 (HeLa cells [5]; read-out: Cisplatin IC50, gene silencing, control shRNA): 0.0039 µM | IC50 (HeLa cells [5]; read-out: Cisplatin IC50, sub-chronic (7 days) 2 μM LY294002): 0.00054 µM | IC50 (HeLa cells [5]; read-out: Cisplatin IC50, untreated): 0.0032 µM

O=c1cc(N2CCOCC2)oc2c(-c3ccccc3)cccc12 [LY294002, 2-Morpholin-4-yl-8-phenylchromen-4-one]
HeLa cell viability (HeLa cells [6]; 2 μM LY294002, seven days): little impact | HeLa cell viability (HeLa cells [6]; 10 μM and 50 μM LY294002, seven days): lethal | 24-h IC10 for LY294002 (HeLa cells [6]; HeLa cells, 24 h): ~2 µM | Increase in Sab expression compared to DMF-treated and untreated cells (Sab expression [7]; 2 μM LY294002, 7 days): ~8 fold | SAB expression (in words) (Sab expression [7]; 2 μM LY294002 for seven days): pronounced increase; also recorded: significant increase; also recorded: increased SH3BP5 expression | Sab expression versus 0.1% DMF and untreated controls (Sab expression [7]; 2 μM, 10 μM and 50 μM LY294002 over 24 h): neither condition increased Sab expression | Increase in phospho-JNK levels (JNK; 2 μM LY294002, between days 2 and 4): over 10 fold | JNK levels on mitochondria (JNK; 2 μM LY294002, between days 3 and 4): increased

CC(=O)O[C@H]1C(=O)[C@@]2(C)[C@H]([C@H](OC(=O)c3ccccc3)[C@]3(O)C[C@H](OC(=O)[C@H](O)[C@@H](NC(=O)c4ccccc4)c4ccccc4)C(C)=C1C3(C)C)[C@]1(OC(C)=O)CO[C@@H]1C[C@@H]2O [Paclitaxel]
IC50 (HeLa cells [5]; Homo sapiens, HeLa, 24 h, acute (24 h) 2 μM LY294002, read-out: Paclitaxel IC50): 14.1 µM | IC50 (HeLa cells [5]; Homo sapiens, HeLa, 24 h, acute (24 h) 10 μM LY294002, read-out: Paclitaxel IC50): 6.3 µM | IC50 (HeLa cells [5]; Homo sapiens, HeLa, 24 h, acute (24 h) 50 μM LY294002, read-out: Paclitaxel IC50): 1.9 µM | IC50 (HeLa cells [5]; Homo sapiens, HeLa, 24 h, acute (24 h) 50 μM LY294002, read-out: Paclitaxel IC50 (as worded in text)): 1.9 µM | IC50 (HeLa cells [5]; Homo sapiens, HeLa, 24 h, acute (24 h) 0.1% DMF, read-out: Paclitaxel IC50): 13.6 µM | IC50 (HeLa cells [5]; Homo sapiens, HeLa, 168 h, sub-chronic (7 days) 2 μM LY294002, read-out: Paclitaxel IC50): 5.1 µM | IC50 (HeLa cells [5]; Homo sapiens, HeLa, 168 h, sub-chronic (7 days) 0.1% DMF, read-out: Paclitaxel IC50): 13.9 µM | IC50 (HeLa cells [5]; Homo sapiens, HeLa, Sab shRNA#2 + Sab:shRNA^r (rescue), read-out: Paclitaxel IC50): 28 µM | IC50 (HeLa cells [5]; Homo sapiens, HeLa, ectopic expression of RFP, read-out: Paclitaxel IC50): 13.4 µM | IC50 (HeLa cells [5]; Homo sapiens, HeLa, ectopic expression of Sab, read-out: Paclitaxel IC50): 4.7 µM | IC50 (HeLa cells [5]; Homo sapiens, HeLa, ectopic expression of Sab: KIM1/2-L/A, read-out: Paclitaxel IC50): 13.8 µM | IC50 (HeLa cells [5]; Homo sapiens, HeLa, gene silencing, Sab shRNA#1, read-out: Paclitaxel IC50): 61.8 µM | IC50 (HeLa cells [5]; Homo sapiens, HeLa, gene silencing, Sab shRNA#2, read-out: Paclitaxel IC50): 73.4 µM | IC50 (HeLa cells [5]; Homo sapiens, HeLa, gene silencing, control shRNA, read-out: Paclitaxel IC50): 15.3 µM | IC50 (HeLa cells [5]; Homo sapiens, HeLa, untreated, read-out: Paclitaxel IC50): 14.7 µM | Decrease in the IC50 of paclitaxel on increasing Sab expression (HeLa cells [5]; pLOC:Sab versus untreated, mock-transfected or RFP cells): 5 fold | Sensitivity to paclitaxel of SH3BP5 over-expressing cells compared to mock and D-AKAP1 over-expressing cells [8]: 2.5 times
